Results reported in US12122763B2, “Substituted piperidines for androgen receptor degradation” (UBIX THERAPEUTICS, INC., priority 2020, dated 2024).

Biological target: T1, Androgen Receptor (AR) protein (Homo sapiens, UniProt P10275, T878A)
T1 construct: endogenous in cells; host or cells: LNCaP
Experiment: Androgen Receptor (AR) protein degradation assay in LNCaP cells, western blotting
Assay type: cell-based
Conditions: 20 h; for inhibition at 0.01 µM: 0.01 μM compound; for inhibition at 0.1 µM: 0.1 μM compound; for inhibition at 1 µM: 1 μM compound
Experimental: Experimental Example 1: Androgen Receptor (AR) Protein Degradation Assay
After treating LNCaP cells with the synthesized Example compound, the amount of AR protein present in the cells was measured. The amount of AR protein was measured using western blotting detection method. The protocol of the experiment using LNCaP cells was as follows:
[Culture] LNCaP cells were resuspended in RPMI1640 MEDIUM (Hyclone, SH30027.01), 10% FBS (Hyclone, SV30207.02), and 1% Penicillin-streptomycin (Welgene, LS 202-02) media to be 3×10^5/mL. Then, 1 mL each was seeded in a 12-well plate. After that, they were cultured for 3 days.
[Compound treatment] 10 μl of 0.1, 1, 10, and 100 μM compound, which is the final compound treatment concentration and a 100× stock of 0.001, 0.01, 0.1, and 1 μM, was added in 1 ml media of each well, and 20 hours later, the cells were harvested.
[Cell Lysis] Cell pellets were suspended using 1% SDS lysis buffer (50 mM Tris, 1 mM EDTA, 1% SDS, pH 8.0, 0.5 mM PMSF, 1× Protease/Phosphatase inhibitor Cocktail (Cell Signaling Technology, 5872s)), and sonication (70% AMP, 5 cycles (30 sec ON/59 sec OFF)) was performed. Cell lysate was obtained after centrifugation at 4° C., 15000 g, for 20 minutes.
[Protein quantification] A BCA protein assay (SMART™ BCA Protein Assay Kit, iNtRON Biotechnology, 21071) was performed using a 96-well microplate. After adding 5 μl cell lysate and 5 μl 1% SDS lysis buffer to each well of the 96-well plate, 200 μl of BCA reagent (Reagent A:Reagent B=50:1) was additionally added. After incubation at 37° C. for 30 minutes, it was cooled at room temperature for 10 minutes. Then, absorbance was measured at a wavelength of 562 nm. The unknown protein concentration was measured using a BSA standard curve (0, 0.125, 0.25, 0.5, 1, 2 mg/ml). Western blotting samples were prepared by mixing cell lysate, 1% SDS lysis buffer, 4× Bolt™ LDS Sample buffer (Invitrogen, B0008), and 10× Bolt™ Sample Reducing Agent (Invitrogen, B0009) and boiling the mixture at 70° C. for 10 minutes.
[Electrophoresis] After loading 8 μg of protein sample into each well of Bolt™ 4 to 12%, Bis-Tris, 1.0 mm Mini Protein Gel, 17-well (Invitrogen, NW04127BOX), Bolt™ MES SDS Running Buffer (Invitrogen, B0002) was used for electrophoresis at 200V (constant V) for 50 minutes.
[Transfer] Using electrophoresis gel and Trans-Blot® Turbo™ Transfer Starter System (Bio-RAD, #17001918, Mini Nitrocellulose), transfer proceeded for 15 minutes under the condition of 1.3A (Constant A) and 25V (Limit V). To confirm protein transfer, 15 ml of Ponceau S solution (Sigma, P7170-1L) was used for staining for 1 minute, followed by washing to confirm the degree of transfer.
[Blocking] Membranes for AR detection were blocked for 45 minutes with 5% skim milk/0.2% TBST (Skim milk: BD, 232100/20× TBS: Biosesang, TR2008-100-00/10% Tween 20 Solution: Bio-RAD, #161-0781). Membranes for GAPDH and β-actin detection were blocked for 45 minutes with Odyssey blocking buffer: 0.1% TBST=1:1 (Odyssey blocking buffer: Li-COR Biosciences, 927-50000).
[Antibody and detection] The primary AR antibody (Androgen Receptor: CST, 5153s) was mixed with 5% skim milk/0.2% TBST at a ratio of 1:1000 and attached for 3 hours at room temperature. Primary β-actin antibody (GeneTex, 629630) was mixed with 5% BSA/0.2% TBST at a ratio of 1:2000 and attached for 3 hours at room temperature. Primary GAPDH antibody (GeneTex, 100118) was mixed with 5% BSA/0.2% TBST at a ratio of 1:2000 and attached for 3 hours at room temperature. After 3 hours, it was washed 3 times every 5 minutes using TBST (0.2% Tween 20). Anti-rabbit IgG, HRP-linked Antibody (CST, 7074s), secondary antibody for the AR antibody was mixed with 5% skim milk/0.2% TBST at a ratio of 1:5000 and attached for 45 minutes at room temperature. […]

T1 sequence (P10275 whole entry T878A): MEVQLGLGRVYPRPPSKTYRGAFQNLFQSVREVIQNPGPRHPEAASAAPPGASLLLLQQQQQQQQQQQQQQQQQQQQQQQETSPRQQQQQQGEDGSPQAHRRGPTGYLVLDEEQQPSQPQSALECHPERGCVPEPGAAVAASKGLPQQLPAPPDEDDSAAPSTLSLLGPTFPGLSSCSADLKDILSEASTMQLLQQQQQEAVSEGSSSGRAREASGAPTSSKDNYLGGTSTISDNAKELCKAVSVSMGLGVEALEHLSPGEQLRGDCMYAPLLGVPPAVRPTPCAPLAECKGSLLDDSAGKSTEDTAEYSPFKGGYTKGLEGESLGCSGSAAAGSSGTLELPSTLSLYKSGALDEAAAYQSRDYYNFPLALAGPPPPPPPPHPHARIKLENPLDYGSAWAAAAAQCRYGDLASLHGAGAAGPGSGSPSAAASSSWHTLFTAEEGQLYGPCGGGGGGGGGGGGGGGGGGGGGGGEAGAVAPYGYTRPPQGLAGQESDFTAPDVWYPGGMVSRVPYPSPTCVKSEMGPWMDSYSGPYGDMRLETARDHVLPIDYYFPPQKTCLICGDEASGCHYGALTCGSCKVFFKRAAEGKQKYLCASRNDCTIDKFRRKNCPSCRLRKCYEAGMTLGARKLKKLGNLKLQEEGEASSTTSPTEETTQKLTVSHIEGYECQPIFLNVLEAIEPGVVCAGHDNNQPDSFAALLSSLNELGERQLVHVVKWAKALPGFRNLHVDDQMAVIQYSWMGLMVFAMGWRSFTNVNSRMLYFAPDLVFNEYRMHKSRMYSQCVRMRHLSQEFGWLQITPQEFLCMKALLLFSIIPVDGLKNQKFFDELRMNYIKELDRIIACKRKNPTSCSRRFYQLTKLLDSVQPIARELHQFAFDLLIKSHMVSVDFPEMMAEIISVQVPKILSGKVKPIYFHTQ
T1 sequence (Q96SW2 whole entry partner): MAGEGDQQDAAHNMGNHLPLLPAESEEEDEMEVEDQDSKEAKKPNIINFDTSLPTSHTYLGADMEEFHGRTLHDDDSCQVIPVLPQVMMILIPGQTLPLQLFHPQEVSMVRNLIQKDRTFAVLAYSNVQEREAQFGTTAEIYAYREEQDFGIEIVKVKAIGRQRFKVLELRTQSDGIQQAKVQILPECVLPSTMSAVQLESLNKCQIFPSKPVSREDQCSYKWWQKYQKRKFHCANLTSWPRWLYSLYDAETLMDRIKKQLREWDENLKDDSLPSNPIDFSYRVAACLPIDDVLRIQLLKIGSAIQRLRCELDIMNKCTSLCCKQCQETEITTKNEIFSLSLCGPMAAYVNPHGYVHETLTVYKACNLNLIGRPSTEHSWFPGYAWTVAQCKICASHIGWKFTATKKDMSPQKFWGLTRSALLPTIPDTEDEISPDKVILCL

| SMILES | inhibition at 0.01 µM [%] | inhibition at 0.1 µM [%] | inhibition at 1 µM [%] | inhibition at 10 µM (10 μM compound) [%] |
| --- | --- | --- | --- | --- |
| N#Cc1ccc(N2CCC(C(=O)Nc3ccc(N4CC(CN5CCN(C[C@@H]6CCN(c7ccc8c(c7)C(=O)N(C7CCC(=O)NC7=O)C8=O)C6)CC5)C4)cn3)CC2)cc1C(F)(F)F (stereo partly drawn) [Example 29, 1-(4-cyano-3-(trifluoromethyl)phenyl)-N-(5-(3-((4-(((3S)-1-(2-(2,6-dioxopiperidin-3-yl)-1,3-dioxoisoindolin-5-yl)pyrrolidin-3-yl)methyl)piperazin-1-yl)methyl)azetidin-1-yl)pyridin-2-yl)piperidine-4-carboxamide] | 80 | 97 | 97 | – |
| N#Cc1ccc(N2CCC(C(=O)Nc3ccc(N4CCC(CN5CCN(C6CCN(c7ccc8c(n7)CN(C7CCC(=O)NC7=O)C8=O)CC6)CC5)CC4)cn3)CC2)cc1C(F)(F)F (stereo not shown) [Example 75, 1-(4-cyano-3-(trifluoromethyl)phenyl)-N-(5-(4-((4-(1-(6-(2,6-dioxopiperidin-3-yl)-5-oxo-6,7-dihydro-5H-pyrrolo[3,4-b]pyridin-2-yl)piperidin-4-yl)piperazin-1-yl)methyl)piperidin-1-yl)pyridin-2-yl)piperidine-4-carboxamide] | 82 | 97 | 90 | – |
| N#Cc1ccc(N2CCC(C(=O)Nc3ccc(N4CCC(CN5CCN(C[C@@H]6CCN(c7ccc8c(n7)CN(C7CCC(=O)NC7=O)C8=O)C6)CC5)CC4)cn3)CC2)cc1C(F)(F)F (stereo partly drawn) [Example 37, 1-(4-cyano-3-(trifluoromethyl)phenyl)-N-(5-(4-((4-(((3S)-1-(6-(2,6-dioxopiperidin-3-yl)-5-oxo-6,7-dihydro-5H-pyrrolo[3,4-b]pyridin-2-yl)pyrrolidin-3-yl)methyl)piperazin-1-yl)methyl)piperidin-1-yl)pyridin-2-yl)piperidine-4-carboxamide] | 51 | 93 | 90 | – |
| N#Cc1ccc(N2CCC(C(=O)Nc3ccc(N4CCN(CCC5CCN(c6ccc7c(c6)C(=O)N(C6CCC(=O)NC6=O)C7=O)CC5)CC4)cn3)CC2)cc1C(F)(F)F (stereo not shown) [Example 119, 1-(4-cyano-3-(trifluoromethyl)phenyl)-N-(5-(4-(2-(1-(2-(2,6-dioxopiperidin-3-yl)-1,3-dioxoisoindolin-5-yl)piperidin-4-yl)ethyl)piperazin-1-yl)pyridin-2-yl)piperidine-4-carboxamide] | 21 | 90 | 26 | – |
| N#Cc1ccc(N2CCC(C(=O)Nc3ccc(C#CC4CCN(CC5CN(c6ccc7c(c6)C(=O)N(C6CCC(=O)NC6=O)C7=O)C5)CC4)cn3)CC2)cc1C(F)(F)F (stereo not shown) [Example 132, 1-(4-cyano-3-(trifluoromethyl)phenyl)-N-(5-((1-((1-(2-(2,6-dioxopiperidin-3-yl)-1,3-dioxoisoindolin-5-yl)azetidin-3-yl)methyl)piperidin-4-yl)ethynyl)pyridin-2-yl)piperidine-4-carboxamide] | 31 | 67 | 72 | 77 |
| N#Cc1ccc(N2CCC(C(=O)Nc3ccc(N4CC(CN5CCC(Oc6ccc7c(c6)C(=O)N(C6CCC(=O)NC6=O)C7=O)CC5)C4)cn3)CC2)cc1C(F)(F)F (stereo not shown) [Example 148, 1-(4-cyano-3-(trifluoromethyl)phenyl)-N-(5-(3-((4-((2-(2,6-dioxopiperidin-3-yl)-1,3-dioxoisoindolin-5-yl)oxy)piperidin-1-yl)methyl)azetidin-1-yl)pyridin-2-yl)piperidine-4-carboxamide] | 27 | 87 | 93 | – |
| N#Cc1ncc(N2CCC(C(=O)Nc3ccc(N4CCC(CN5CCN(C6CCN(c7ccc8c(c7)CN(C7CCC(=O)NC7=O)C8=O)CC6)CC5)CC4)cn3)CC2)cc1C(F)(F)F (stereo not shown) [Example 142, 1-(6-cyano-5-(trifluoromethyl)pyridin-3-yl)-N-(5-(4-((4-(1-(2-(2,6-dioxopiperidin-3-yl)-1-oxoisoindolin-5-yl)piperidin-4-yl)piperazin-1-yl)methyl)piperidin-1-yl)pyridin-2-yl)piperidine-4-carboxamide] | 55 | 87 | 83 | – |
| N#Cc1ccc(N2CCC(C(=O)Nc3ccc(N4CCC(CCN5CCN(c6cc7c(cc6F)C(=O)N(C6CCC(=O)NC6=O)C7=O)CC5)CC4)cn3)CC2)cc1C(F)(F)F (stereo not shown) [Example 192, 1-(4-cyano-3-(trifluoromethyl)phenyl)-N-(5-(4-(2-(4-(2-(2,6-dioxopiperidin-3-yl)-6-fluoro-1,3-dioxoisoindolin-5-yl)piperazin-1-yl)ethyl)piperidin-1-yl)pyridin-2-yl)piperidine-4-carboxamide] | -11 | 15 | 67 | – |
| N#Cc1ccc(N2CCC(C(=O)Nc3ccc(N4CCC(CN5CC(CN6CCN(c7ccc8c(n7)CN(C7CCC(=O)NC7=O)C8=O)CC6)C5)CC4)cn3)CC2)cc1C(F)(F)F (stereo not shown) [Example 80, 1-(4-cyano-3-(trifluoromethyl)phenyl)-N-(5-(4-((3-((4-(6-(2,6-dioxopiperidin-3-yl)-5-oxo-6,7-dihydro-5H-pyrrolo[3,4-b]pyridin-2-yl)piperazin-1-yl)methyl)azetidin-1-yl)methyl)piperidin-1-yl)pyridin-2-yl)piperidine-4-carboxamide] | 34 | 90 | 57 | – |
| N#Cc1ccc(N2CCC(O)(C(=O)Nc3ccc(N4CCC(CN5CC6(CCN(c7ccc8c(c7)C(=O)N(C7CCC(=O)NC7=O)C8=O)CC6)C5)CC4)cn3)CC2)cc1C(F)(F)F (stereo not shown) [Example 55, 1-(4-cyano-3-(trifluoromethyl)phenyl)-N-(5-(4-((7-(2-(2,6-dioxopiperidin-3-yl)-1,3-dioxoisoindolin-5-yl)-2,7-diazaspiro[3.5]nonan-2-yl)methyl)piperidin-1-yl)pyridin-2-yl)-4-hydroxypiperidine-4-carboxamide] | 34 | 69 | 95 | – |
| N#Cc1ccc(N2CCC(C(=O)Nc3ccc(N4CCC(CN5CCC(CN6CCN(c7ccc8c(c7)C(=O)N(C7CCC(=O)NC7=O)C8=O)CC6)CC5)CC4)cn3)CC2)cc1C(F)(F)F (stereo not shown) [Example 81, 1-(4-cyano-3-(trifluoromethyl)phenyl)-N-(5-(4-((4-((4-(2-(2,6-dioxopiperidin-3-yl)-1,3-dioxoisoindolin-5-yl)piperazin-1-yl)methyl)piperidin-1-yl)methyl)piperidin-1-yl)pyridin-2-yl)piperidine-4-carboxamide] | 44 | 87 | 96 | – |
| N#Cc1ccc(N2CCC(C(=O)Nc3ccc(CN4CCC(CN5CCN(c6ccc7c(c6)C(=O)N(C6CCC(=O)NC6=O)C7=O)CC5)CC4)cn3)CC2)cc1C(F)(F)F (stereo not shown) [Example 161, 1-(4-cyano-3-(trifluoromethyl)phenyl)-N-(5-((4-((4-(2-(2,6-dioxopiperidin-3-yl)-1,3-dioxoisoindolin-5-yl)piperazin-1-yl)methyl)piperidin-1-yl)methyl)pyridin-2-yl)piperidine-4-carboxamide] | 9 | 58 | 86 | – |
